These results are taken from ChEMBL document CHEMBL4609972, “Histone deacetylase 8 (HDAC8) and its inhibitors with selectivity to other isoforms: An overview” (Eur J Med Chem, 2019).

Test [1] deals with T1, Protein deacetylase HDAC6 (Homo sapiens, UniProt Q9UBN7).
T1 sequence (Q9UBN7 whole entry): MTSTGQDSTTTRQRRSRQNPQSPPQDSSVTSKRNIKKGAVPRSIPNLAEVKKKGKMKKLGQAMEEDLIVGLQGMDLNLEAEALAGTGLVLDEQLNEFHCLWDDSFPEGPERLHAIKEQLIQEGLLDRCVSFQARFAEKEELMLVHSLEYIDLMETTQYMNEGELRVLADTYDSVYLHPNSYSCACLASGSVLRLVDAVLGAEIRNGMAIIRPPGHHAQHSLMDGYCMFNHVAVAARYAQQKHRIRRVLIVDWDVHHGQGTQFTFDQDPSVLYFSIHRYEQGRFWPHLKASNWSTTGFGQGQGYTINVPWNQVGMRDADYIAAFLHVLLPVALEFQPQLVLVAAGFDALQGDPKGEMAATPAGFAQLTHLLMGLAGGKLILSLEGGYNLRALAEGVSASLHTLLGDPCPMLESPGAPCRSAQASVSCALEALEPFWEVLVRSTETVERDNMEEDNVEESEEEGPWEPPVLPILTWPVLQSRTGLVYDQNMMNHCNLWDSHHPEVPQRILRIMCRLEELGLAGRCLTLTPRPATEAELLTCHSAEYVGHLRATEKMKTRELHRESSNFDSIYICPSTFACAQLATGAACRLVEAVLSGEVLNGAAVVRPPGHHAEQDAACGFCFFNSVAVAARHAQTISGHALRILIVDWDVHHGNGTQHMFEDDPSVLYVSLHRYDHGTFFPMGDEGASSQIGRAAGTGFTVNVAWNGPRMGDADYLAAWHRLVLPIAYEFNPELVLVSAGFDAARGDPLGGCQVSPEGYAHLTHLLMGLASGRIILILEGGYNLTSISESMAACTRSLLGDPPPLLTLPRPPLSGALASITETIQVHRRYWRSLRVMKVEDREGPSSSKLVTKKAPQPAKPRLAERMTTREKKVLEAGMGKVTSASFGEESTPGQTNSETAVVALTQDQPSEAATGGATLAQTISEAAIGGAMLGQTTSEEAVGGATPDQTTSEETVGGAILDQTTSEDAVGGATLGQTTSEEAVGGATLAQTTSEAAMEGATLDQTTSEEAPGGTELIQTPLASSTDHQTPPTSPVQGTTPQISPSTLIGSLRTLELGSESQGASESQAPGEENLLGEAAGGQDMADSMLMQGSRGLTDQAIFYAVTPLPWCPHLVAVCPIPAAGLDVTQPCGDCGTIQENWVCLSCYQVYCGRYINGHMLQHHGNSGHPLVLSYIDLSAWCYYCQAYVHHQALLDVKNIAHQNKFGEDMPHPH
The test is described as follows: Inhibition of HDAC6 (unknown origin).

The next test addresses T2, Histone deacetylase 8 (Homo sapiens, UniProt Q9BY41).
T2 sequence (Q9BY41 whole entry): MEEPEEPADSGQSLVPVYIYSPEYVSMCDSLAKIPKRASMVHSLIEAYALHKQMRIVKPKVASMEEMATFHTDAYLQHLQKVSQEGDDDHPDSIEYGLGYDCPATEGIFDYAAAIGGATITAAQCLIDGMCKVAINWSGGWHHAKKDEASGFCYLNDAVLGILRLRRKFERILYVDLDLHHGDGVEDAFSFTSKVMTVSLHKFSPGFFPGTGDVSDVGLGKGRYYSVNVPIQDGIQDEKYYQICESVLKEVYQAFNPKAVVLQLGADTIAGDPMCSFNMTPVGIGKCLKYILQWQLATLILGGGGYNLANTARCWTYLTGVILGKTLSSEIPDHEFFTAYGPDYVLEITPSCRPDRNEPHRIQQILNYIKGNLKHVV
Description: Inhibition of HDAC8 (unknown origin).

The target of test [2] is 72 kDa type IV collagenase (Homo sapiens, UniProt P08253). Description: Inhibition of MMP2 (unknown origin).
Sequence of 72 kDa type IV collagenase (P08253 whole entry): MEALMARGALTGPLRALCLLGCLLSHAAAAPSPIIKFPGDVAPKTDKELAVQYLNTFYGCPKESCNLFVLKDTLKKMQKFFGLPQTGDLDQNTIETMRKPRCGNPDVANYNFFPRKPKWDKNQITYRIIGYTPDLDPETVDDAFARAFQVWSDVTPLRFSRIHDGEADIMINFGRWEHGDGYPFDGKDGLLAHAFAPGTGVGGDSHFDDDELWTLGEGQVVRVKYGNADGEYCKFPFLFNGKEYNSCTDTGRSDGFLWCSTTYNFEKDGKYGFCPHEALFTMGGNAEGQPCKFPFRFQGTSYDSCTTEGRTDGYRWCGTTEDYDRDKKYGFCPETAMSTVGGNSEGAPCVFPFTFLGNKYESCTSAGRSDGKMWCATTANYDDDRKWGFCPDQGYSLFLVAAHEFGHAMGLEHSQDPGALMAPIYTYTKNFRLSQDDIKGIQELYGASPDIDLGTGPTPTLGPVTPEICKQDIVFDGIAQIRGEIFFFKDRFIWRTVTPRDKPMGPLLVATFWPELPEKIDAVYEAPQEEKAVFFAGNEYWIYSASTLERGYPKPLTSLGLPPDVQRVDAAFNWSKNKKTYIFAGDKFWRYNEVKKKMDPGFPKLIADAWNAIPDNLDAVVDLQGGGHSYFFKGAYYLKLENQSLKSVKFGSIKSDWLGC
Another test concerns the target Histone deacetylase. Description: Inhibition of HDAC (unknown origin). Type of test: protein assay, Homo sapiens.

Square brackets hold non-standard residues; d marks the D form. Peptide text beside a SMILES is read from it. * marks the point of attachment. Asu = N[C@@H](CCCCCC(=O)O)C(=O)O; NHOH = ON*

Compound `O=C(NO)c1ccc(CN(CCO)C(=O)Cc2ccccc2)cc1` displayed an IC50 in test [1] of 376 nM.
On to `O=C(O)CC[C@@H](NC(=O)Cc1ccc(Br)cc1)C(=O)NCc1ccc([N+](=O)[O-])cc1`, for which the IC50 (at Histone deacetylase 8; in test [2]) was 2890 nM throughout.
`O=C(CCCCCNC(=O)c1ccc(NC(=O)NC(C(=O)Nc2cccc(C(F)(F)F)c2)c2ccccc2)cc1)NO` (centres undefined): on Histone deacetylase 8, half-maximal inhibition (IC50) required 967 nM.
The same measure, in the same setting: the figure for `O=C(CCCCCCC(=O)Nc1cc(C(F)(F)F)ccc1Cl)NO` is 119 nM.
Compound `O=C(NO)c1cccc(-c2nc(CSc3ccccc3)n[nH]2)c1` gave a half-maximal inhibitory concentration (IC50) against Histone deacetylase 8 of 53 nM. Against the preceding compound, the IC50 is about 2.2-fold lower.
`O=C(NO)c1ccc(NCc2csc3ccccc23)cc1` came in with an IC50 in test [1] of 1400 nM.
As for `CC(C)[C@@H](C#Cc1ccc(C(=O)NO)cc1)NC(=O)C1Cc2ccccc2O1` (some centres undefined), the concentration for half-maximal inhibition (IC50) in test [1] is 417 nM.
The compound `CC[C@H](C)[C@@H]1NC(=O)[C@@H](Cc2ccc(OC)cc2)NC(=O)[C@H](CCCCCC(=O)NO)NC(=O)[C@H]2CCCN2C1=O` (cyclo([Asu](NHOH)[dY](Me)I[dP])) gave an IC50 against Histone deacetylase of 3.32 nM.

As usually defined, the IC50 is the midpoint of a concentration-inhibition curve. Higher therefore signals weaker potency in that assay.
